Here are results for 27 molecules from patent publication US11590139B2, “Substituted aminopurine compounds, compositions thereof, and methods of treatment therewith” (Signal Pharmaceuticals, LLC, priority 2014, dated 2023).

The test system of the first assay is Lox-IMVI melanoma cell line. Kind of assay: Lox-IMVI anti-proliferative assay (growth inhibition, Cell Titer-Glo). The class given is cell-based, human. Particulars: Homo sapiens; IC50 activity level in the cell-based Lox-IMVI anti-proliferative assay; read-out: Activity. In a few lines: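 First, compound was dispensed as a 10-point 3-fold series (0.5 nM–10 μM, duplicate). Then cells in RPMI + 10% FBS were added and grown 72 h at 37 °C with 0.2% DMSO. Finally, ATP luminescence was read and IC50 calculated versus DMSO control.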
For orientation: Cellular ATP, detected with luciferase, serves as a proxy for viable cell number.
In the case of `NC(=O)[C@H]1CC[C@@H](n2c(Nc3c(Cl)cc(Cl)cc3Cl)nc3cnc(N[C@H]4CCNC[C@H]4F)nc32)CC1` [Example 138, (1R,4s)-4-(2-((3R,4S)-3-fluoropiperidin-4-ylamino)-8-(2,4,6-trichlorophenylamino)-9H-purin-9-yl)cyclohexanecarboxamide], the IC50 was above 1 µM.

With `NC(=O)[C@H]1CC[C@@H](n2c(Nc3ccc(F)c(F)c3F)nc3cnc(NC4CCOCC4)nc32)CC1` [Example 66, (1s,4s)-4-(2-(tetrahydro-2H-pyran-4-ylamino)-8-(2,3,4-trifluorophenylamino)-9H-purin-9-yl)cyclohexanecarboxamide], the IC50 is 0.5 to 1 µM.

Turning to `NC(=O)[C@H]1CC[C@@H](n2c(Nc3c(F)cc(Cl)cc3F)nc3cnc(N[C@H]4CC[C@H](O)C4)nc32)CC1` [Example 329, (1R,4s)-4-(8-(4-chloro-2,6-difluorophenylamino)-2-((1S,3S)-3-hydroxycyclopentylamino)-9H-purin-9-yl)cyclohexanecarboxamide], the IC50 was in the range of 0.5 to 1 µM.

Consider `N#Cc1cc(F)c(Nc2nc3cnc(NC4CCC4)nc3n2[C@H]2CC[C@@H](C(N)=O)CC2)c(Cl)c1` [Example 393, (1s,4s)-4-(8-(2-chloro-4-cyano-6-fluorophenylamino)-2-(cyclobutylamino)-9H-purin-9-yl)cyclohexanecarboxamide], for which the IC50 lay in the range of 0.25 to 0.5 µM.

As for `NC(=O)[C@H]1CC[C@@H](n2c(Nc3c(F)cccc3Cl)nc3cnc(N[C@@H]4CC[C@@H](O)C4)nc32)CC1` [Example 208, (1S,4s)-4-(8-(2-chloro-6-fluorophenylamino)-2-((1R,3R)-3-hydroxycyclopentylamino)-9H-purin-9-yl)cyclohexanecarboxamide], the IC50 was above 1 µM.

In the case of `NC(=O)[C@H]1CC[C@@H](n2c(Nc3c(F)cc(Cl)cc3Cl)nc3cnc(NC4CCC(F)(F)CC4)nc32)CC1` [Example 186, (1s,4s)-4-(8-(2,4-dichloro-6-fluorophenylamino)-2-(4,4-difluorocyclohexylamino)-9H-purin-9-yl)cyclohexanecarboxamide], the IC50 is below 0.25 µM.

With `C[C@@H](CO)Nc1ncc2nc(Nc3c(Cl)cc(C#N)cc3Cl)n([C@H]3CC[C@@H](C(N)=O)CC3)c2n1` [Example 366, (1R,4s)-4-(8-(2,6-dichloro-4-cyanophenylamino)-2-((S)-1-hydroxypropan-2-ylamino)-9H-purin-9-yl)cyclohexanecarboxamide], the IC50 was below 0.25 µM.

With `CC(C)(C)OC(=O)N1CCC[C@@H](Nc2ncc3nc(Nc4c(Cl)cc(Cl)cc4Cl)n([C@H]4CC[C@@H](C(N)=O)CC4)c3n2)C1` [Example 163, (R)-tert-butyl 3-(9-((1s,4S)-4-carbamoylcyclohexyl)-8-(2,4,6-trichlorophenylamino)-9H-purin-2-ylamino)piperidine-1-carboxylate], the IC50 was above 1 µM.

Take `Cc1cccc(Nc2nc3cnc(NC4CCOCC4)nc3n2[C@H]2CC[C@@H](C(N)=O)CC2)c1Cl` [Example 69, (1s,4s)-4-(8-(2-chloro-3-methylphenylamino)-2-(tetrahydro-2H-pyran-4-ylamino)-9H-purin-9-yl)cyclohexanecarboxamide]: the IC50 was above 1 µM.

Take `CC[C@@H](CO)Nc1ncc2nc(Nc3c(F)cc(F)cc3Cl)n([C@H]3CC[C@@H](C(N)=O)CC3)c2n1` [Example 147, (1R,4s)-4-(8-(2-chloro-4,6-difluorophenylamino)-2-((S)-1-hydroxybutan-2-ylamino)-9H-purin-9-yl)cyclohexanecarboxamide]: the IC50 was above 1 µM.

For the molecule `C[C@@H]1CC[C@@H](Nc2ncc3nc(Nc4c(F)cccc4F)n([C@H]4CC[C@@H](C(N)=O)CC4)c3n2)C[C@H]1O` [Example 343, (1S,4s)-4-(8-(2,6-difluorophenylamino)-2-((1R,3R,4R)-3-hydroxy-4-methylcyclohexylamino)-9H-purin-9-yl)cyclohexanecarboxamide], the IC50 is above 1 µM.

Turning to `CC(=O)N1CCC(Nc2ncc3nc(Nc4c(Cl)cc(Cl)cc4Cl)n([C@H]4CC[C@@H](C(N)=O)CC4)c3n2)CC1` [Example 197, (1s,4s)-4-(2-(1-acetylpiperidin-4-ylamino)-8-(2,4,6-trichlorophenylamino)-9H-purin-9-yl)cyclohexanecarboxamide], the IC50 was above 1 µM.

Take `NC(=O)[C@H]1CC[C@@H](n2c(Nc3c(F)ccc(F)c3F)nc3cnc(NC4CCCC4)nc32)CC1` [Example 141, (1s,4s)-4-(2-(cyclopentylamino)-8-(2,3,6-trifluorophenylamino)-9H-purin-9-yl)cyclohexanecarboxamide]: the IC50 was in the range of 0.5 to 1 µM.

With `NC(=O)[C@H]1CC[C@@H](n2c(Nc3cc(F)cc(Cl)c3F)nc3cnc(N[C@H]4C[C@H](O)C4)nc32)CC1` [Example 287, (1s,4s)-4-(8-(3-chloro-2,5-difluorophenylamino)-2-((1R,3r)-3-hydroxycyclobutylamino)-9H-purin-9-yl)cyclohexanecarboxamide], the IC50 is above 1 µM.

As for `NC(=O)[C@H]1CC[C@@H](n2c(Nc3ccc(F)c(Cl)c3Cl)nc3cnc(NC4CCOCC4)nc32)CC1` [Example 81, (1s,4s)-4-(8-(2,3-dichloro-4-fluorophenylamino)-2-(tetrahydro-2H-pyran-4-ylamino)-9H-purin-9-yl)cyclohexanecarboxamide], the IC50 is above 1 µM.

Take `CC1(C)CC[C@@H](Nc2ncc3nc(Nc4c(F)cc(Cl)cc4Cl)n([C@H]4CC[C@@H](C(N)=O)CC4)c3n2)C[C@H]1O` [Example 389, (1S,4s)-4-(8-(2,4-dichloro-6-fluorophenylamino)-2-((1R,3R)-3-hydroxy-4,4-dimethylcyclohexylamino)-9H-purin-9-yl)cyclohexanecarboxamide]: the IC50 was above 1 µM.

Turning to `NC(=O)[C@H]1CC[C@@H](n2c(Nc3c(Cl)cc(F)cc3Cl)nc3cnc(N[C@@H]4CCCOC4)nc32)CC1` [Example 189, (1S,4s)-4-(8-(2,6-dichloro-4-fluorophenylamino)-2-((R)-tetrahydro-2H-pyran-3-ylamino)-9H-purin-9-yl)cyclohexanecarboxamide], the IC50 was above 1 µM.

Staying with this assay, now noted: Homo sapiens; Lox-IMVI anti-proliferative assay, IC50 activity level; read-out: Activity.
On to `NC(=O)[C@H]1CC[C@@H](n2c(Nc3c(F)cc(Cl)cc3F)nc3cnc(N[C@H]4CCCC[C@H]4O)nc32)CC1` [Example 515, (1R,4s)-4-(8-(4-chloro-2,6-difluorophenylamino)-2-((1S,2R)-2-hydroxycyclohexylamino)-9H-purin-9-yl)cyclohexanecarboxamide], for which the IC50 was above 1 µM.

`C[C@]1(C(N)=O)CC[C@H](n2c(Nc3c(F)cc(F)cc3F)nc3cnc(NC4CCCC4)nc32)CC1` [Example 494, (1r,4r)-4-(2-(cyclopentylamino)-8-(2,4,6-trifluorophenylamino)-9H-purin-9-yl)-1-methylcyclohexanecarboxamide]: the IC50 is above 1 µM.

Turning to `CC[C@@H](CO)Nc1ncc2nc(Nc3c(Cl)cc(C#N)cc3Cl)n([C@H]3CC[C@@H](C(N)=O)CC3)c2n1` [Example 432, (1R,4s)-4-(8-(2,6-dichloro-4-cyanophenylamino)-2-((S)-1-hydroxybutan-2-ylamino)-9H-purin-9-yl)cyclohexanecarboxamide], the IC50 was 0.5 to 1 µM.

Regarding `COC(=O)N1CCC[C@@H](Nc2ncc3nc(Nc4c(Cl)cc(Cl)cc4Cl)n([C@H]4CC[C@@H](C(N)=O)CC4)c3n2)C1` [Example 409, (R)-methyl 3-(9-((1s,4S)-4-carbamoylcyclohexyl)-8-(2,4,6-trichlorophenylamino)-9H-purin-2-ylamino)piperidine-1-carboxylate], the IC50 was in the range of 0.5 to 1 µM.

As for `NC(=O)[C@H]1CC[C@@H](n2c(Nc3c(F)cc(F)cc3F)nc3cnc(N[C@H]4CCCC[C@H]4O)nc32)CC1` [Example 512, (1R,4s)-4-(2-((1S,2R)-2-hydroxycyclohexylamino)-8-(2,4,6-trifluorophenylamino)-9H-purin-9-yl)cyclohexanecarboxamide], the IC50 was above 1 µM.

Regarding `NC(=O)[C@H]1CC[C@@H](n2c(Nc3c(F)cc(F)cc3F)nc3cnc(N[C@@H]4CCC(F)(F)C4)nc32)CC1` [Example 545, (1S,4s)-4-(2-((R)-3,3-difluorocyclopentylamino)-8-(2,4,6-trifluorophenylamino)-9H-purin-9-yl)cyclohexanecarboxamide], the IC50 was below 0.25 µM.

As for `C[C@]1(C(N)=O)CC[C@@H](n2c(Nc3c(F)cc(F)cc3Cl)nc3cnc(NC4CCC(F)(F)CC4)nc32)CC1` [Example 527, (1s,4s)-4-(8-(2-chloro-4,6-difluorophenylamino)-2-(4,4-difluorocyclohexylamino)-9H-purin-9-yl)-1-methylcyclohexanecarboxamide], the IC50 was below 0.25 µM.

Still in this assay, the particulars now being: Homo sapiens; Lox-IMVI melanoma cell line, anti-proliferative assay; read-out: Activity (IC50 activity level).
As to `NC(=O)[C@H]1CC[C@@H](n2c(Nc3c(F)cc(Cl)cc3Cl)nc3cnc(N[C@@H]4CCCN(C(=O)Nc5ccccc5)C4)nc32)CC1` [Example 783, (R)-3-(9-((1s,4S)-4-carbamoylcyclohexyl)-8-(2,4-dichloro-6-fluorophenylamino)-9H-purin-2-ylamino)-N-phenylpiperidine-1-carboxamide], the IC50 was above 1 µM.

As for `NC(=O)[C@H]1CC[C@@H](n2c(Nc3c(Cl)cc(F)cc3Cl)nc3cnc(NC[C@@H]4CCCC[C@@H]4O)nc32)CC1` [Example 656, (1R,4s)-4-(8-(2,6-dichloro-4-fluorophenylamino)-2-(((1S,2S)-2-hydroxycyclohexyl)methylamino)-9H-purin-9-yl)cyclohexanecarboxamide], the IC50 was above 1 µM.

On to `N#Cc1cc(F)c(Nc2nc3cnc(N[C@@H]4CCC(O)C4)nc3n2[C@H]2CC[C@@H](C(N)=O)CC2)c(Cl)c1` (stereo partly drawn) [Example 682, (1S,4s)-4-(8-(2-chloro-4-cyano-6-fluorophenylamino)-2-((1R,3R)-3-hydroxycyclopentylamino)-9H-purin-9-yl)cyclohexanecarboxamide], for which the IC50 was below 0.25 µM.
